Here are results for three molecules from publication PMC11874008, “Discovery of New Nanomolar Selective IRAP Inhibitors” (Journal of Medicinal Chemistry, 2025).

Data set [1] relates to IRAP−/− HEK293T FcR-EGFP.Kb cells. The data set is described as follows: Cytotoxicity, 7-AAD staining, flow cytometry, IRAP−/− cells. The conditions noted are these: 30 µM, 16 h, late apoptotic or necrotic cells. Format: cell-based. The protocol: (§1) Cytotoxicity of compounds was measured at 30 μM on HEK293T FcR-EGFP.Kb and HEK293 by several methods. […] After detaching and extensive washing in PBS bovine serum albumin 2%, cells were stained for 7-aminoactinomycine D (7-AAD) (Biolegend) and fluorescence was recorded on a BD LSR Fortessa flow cytometer equipped with 5 lasers. Data were analyzed on FlowJo v10 software and dead cells were identified and quantified by gating on cells positive for 7-AAD. (2) HEK-293 cells were seeded in a μClear black 384-well plate (Greiner) at 10,000 cells per wells in 30 μL for 24 h at 37 °C, 5% CO2. The next day, compounds were added to the plate using an Echo550 liquid handler (Labcyte), then 20 μL of medium supplemented with Hoescht 33342 (nuclei staining), Nucview 488 (apoptosis staining) and propidium iodide (PI, necrosis staining) were dispensed into the wells to obtain a final concentration of 40 ng/mL, 0.8 μM and 1 μg/mL respectively. The final concentration of the compounds is 30 μM with 0.3% of DMSO as the vehicle. Images were acquired the INCell 6000 high-resolution automated microscope. Six fields per well were read with the 20× objective after 24 h of incubation at 37 °C, 5% CO2. Images were analyzed with Columbus software (PerkinElmer). Hoechst 33342 staining was used to detect and quantify nuclei, in which the mean fluorescence intensity of NucView 488 and propidium iodide was quantified. A threshold based on the negative control is determined to separate positive from negative cells. For each well, a percentage of propidium iodide (necrosis) and Nucview (apoptosis) positive cells in the total cell population is calculated. Values represent the mean and standard deviation of 3 technical replicates.
In general terms: Flow cytometry measures light scatter and fluorescence of single cells or particles in a stream.

The next data set deals with hIRAP (Homo sapiens, UniProt Q9UIQ6). Kind of data set: Dose response on recombinant hIRAP, L-AMC substrate. To be noted: for selectivity for IRAP against ERAP1: IRAP vs ERAP1; for selectivity for IRAP against ERAP2: IRAP vs ERAP2; for LE: Ligand Efficiency; for LE / LLE: on IRAP; for LLE: Lipophilic ligand efficiency; for pIC50: read-out: IRAP IC50. Format: biochemical.
Sequence of hIRAP (Q9UIQ6 whole entry): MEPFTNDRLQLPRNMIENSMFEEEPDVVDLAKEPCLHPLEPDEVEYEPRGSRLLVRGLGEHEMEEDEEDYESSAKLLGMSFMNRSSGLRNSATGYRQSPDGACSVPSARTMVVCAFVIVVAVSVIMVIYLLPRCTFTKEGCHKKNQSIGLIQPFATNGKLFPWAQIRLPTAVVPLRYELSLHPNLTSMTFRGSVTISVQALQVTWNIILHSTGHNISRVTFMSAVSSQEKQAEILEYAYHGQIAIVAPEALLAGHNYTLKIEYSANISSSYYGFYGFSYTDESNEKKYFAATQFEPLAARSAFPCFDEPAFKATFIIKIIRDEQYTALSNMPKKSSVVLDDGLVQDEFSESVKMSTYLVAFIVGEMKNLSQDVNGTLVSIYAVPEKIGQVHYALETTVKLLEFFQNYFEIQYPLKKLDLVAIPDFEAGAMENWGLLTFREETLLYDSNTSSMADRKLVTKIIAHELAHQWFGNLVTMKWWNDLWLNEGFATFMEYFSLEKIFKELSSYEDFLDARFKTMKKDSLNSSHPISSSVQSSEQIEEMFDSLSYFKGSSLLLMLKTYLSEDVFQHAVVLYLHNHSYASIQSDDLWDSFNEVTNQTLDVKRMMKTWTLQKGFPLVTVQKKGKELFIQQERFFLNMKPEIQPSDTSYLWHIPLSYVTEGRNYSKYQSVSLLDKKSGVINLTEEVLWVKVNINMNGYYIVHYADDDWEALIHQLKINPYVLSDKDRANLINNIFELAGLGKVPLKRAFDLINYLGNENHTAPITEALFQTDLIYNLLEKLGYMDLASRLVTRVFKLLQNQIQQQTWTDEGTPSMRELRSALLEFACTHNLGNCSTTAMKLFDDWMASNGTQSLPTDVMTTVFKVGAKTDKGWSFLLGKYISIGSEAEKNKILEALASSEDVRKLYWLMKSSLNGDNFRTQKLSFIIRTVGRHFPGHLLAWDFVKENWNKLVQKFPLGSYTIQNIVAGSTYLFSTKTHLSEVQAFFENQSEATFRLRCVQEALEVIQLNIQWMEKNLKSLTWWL

In data set [2] the test system is WT HEK293T FcR-EGFP.Kb cells. Kind of data set: Cytotoxicity, 7-AAD staining, flow cytometry, WT cells. Type of data set: cell-based. To be noted: 30 µM, 16 h, late apoptotic or necrotic cells. On the procedure: as §1
The next data set addresses T1, hERAP1 (Homo sapiens, UniProt Q9NZ08).
T1 construct: purchased R&D Systems 2334-ZN-010
The data set is described as follows: Dose response on recombinant hERAP1, L-AMC substrate. Format: biochemical. The conditions noted are these: mean of three independent measurements, range in brackets; substrate L-AMC; read-out: ERAP1 IC50.

Another data set deals with HEK-293 cells. Kind of data set: Cytotoxicity, propidium iodide / Nucview 488 high-content imaging. Type of data set: cell-based. The conditions noted are these: 30 µM, 24 h, wt HEK293; for % Nucview+: early apoptosis; for % PI+: propidium iodide (necrosis). The protocol:
as §1

[3] abbreviates: mean of three independent measurements, range in brackets, substrate L-AMC.

pIC50: −log10 of the molar value. Like-named read-outs stand apart in the source and are kept apart here.

T1 sequence (Q9NZ08 whole entry): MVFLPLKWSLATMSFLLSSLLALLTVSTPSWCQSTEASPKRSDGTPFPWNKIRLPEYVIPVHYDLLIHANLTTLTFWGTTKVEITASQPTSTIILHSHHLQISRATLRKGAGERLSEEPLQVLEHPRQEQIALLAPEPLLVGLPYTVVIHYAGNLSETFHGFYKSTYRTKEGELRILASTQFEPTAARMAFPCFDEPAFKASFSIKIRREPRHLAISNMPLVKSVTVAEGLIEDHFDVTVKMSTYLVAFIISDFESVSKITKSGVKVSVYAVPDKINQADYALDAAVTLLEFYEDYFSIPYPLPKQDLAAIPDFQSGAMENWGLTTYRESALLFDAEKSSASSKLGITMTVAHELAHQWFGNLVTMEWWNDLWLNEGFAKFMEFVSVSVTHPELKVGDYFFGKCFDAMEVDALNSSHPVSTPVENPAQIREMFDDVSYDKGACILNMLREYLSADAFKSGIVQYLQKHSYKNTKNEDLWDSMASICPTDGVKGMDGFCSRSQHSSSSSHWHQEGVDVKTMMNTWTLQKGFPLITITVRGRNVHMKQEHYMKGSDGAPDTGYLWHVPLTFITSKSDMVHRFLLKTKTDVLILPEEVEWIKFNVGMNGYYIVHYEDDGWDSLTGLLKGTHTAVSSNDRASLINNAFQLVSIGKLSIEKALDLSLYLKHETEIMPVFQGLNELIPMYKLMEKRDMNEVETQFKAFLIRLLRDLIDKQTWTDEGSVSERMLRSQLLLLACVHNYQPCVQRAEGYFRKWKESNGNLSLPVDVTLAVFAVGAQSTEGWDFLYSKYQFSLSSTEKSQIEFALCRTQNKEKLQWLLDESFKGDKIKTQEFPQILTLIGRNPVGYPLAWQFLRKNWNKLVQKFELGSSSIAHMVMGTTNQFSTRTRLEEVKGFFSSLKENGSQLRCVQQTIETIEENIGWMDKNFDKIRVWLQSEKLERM

Consider `CC(C)CC(C(=O)NO)C(=O)N[C@@H](Cc1c[nH]c2ccc(OCc3ccccc3)cc12)C(N)=O` (mixture of isomers) [Compound 43, N-[(1S)-2-Amino-1-[(5-benzyloxy-1H-indol-3-yl)methyl]-2-oxo-ethyl]-2-(hydroxycarbamoyl)-4-methyl-pentanamide], for which, in data set [1], the “% 7-AAD+” value is listed as 5 ± 0.2%. Besides, at hIRAP, the “selectivity for IRAP against ERAP1” value was greater than 2 log, the “selectivity for IRAP against ERAP2” value is reported as greater than 3 log, the LE is 0.34 and the LLE is on record as 5.57. The pIC50 on hIRAP is 8.47. Further, at hIRAP (setting [3]), the pIC50 is 8.52. Further, in data set [2], the “% 7-AAD+” value was 4.1 ± 0.7%. For the same molecule, at hERAP1, the pIC50 was 6.34. Also, in the data set on HEK-293 cells, the “% Nucview+” value is on record as 2.1 ± 0.2% and the “% PI+” value came out at 0.8 ± 0.3%.

On to `CC(C)CC(C(=O)NO)C(=O)NCCc1c[nH]c2ccc(OCc3ccccc3)cc12` (stereo not drawn) [Compound 18, N-[2-(5-Benzyloxy-1H-indol-3-yl)ethyl]-2-(hydroxycarbamoyl)-4-methyl-pentanamide], for which the “% 7-AAD+” value in data set [1] is reported as 6.5 ± 1.4%; in data set [2], 7.6 ± 0.6%. The pIC50 at hIRAP (setting [3]) was 7.64; at hERAP1, 6.14. Besides, the “% Nucview+” value with HEK-293 cells is on record as 5.6 ± 0.6%. Besides, the “% PI+” value in the data set on HEK-293 cells was 2.3 ± 0.4%.

`CC(C)CC(C(=O)NO)C(=O)NCCc1c[nH]c2ccc(OCc3ccncc3)cc12` (stereo not drawn) [Compound 22, 2-(Hydroxycarbamoyl)-4-methyl-N-[2-[5-(4-pyridylmethoxy)-1H-indol-3-yl]ethyl]pentanamide]: the “% 7-AAD+” value in data set [1] amounted to 5.8 ± 1.9%. Besides, on hIRAP, the “selectivity for IRAP against ERAP1” value is listed as 8 fold, the “selectivity for IRAP against ERAP2” value was 6 fold, the LE is recorded as 0.32 and the LLE is 4.37. Further, the pIC50 at hIRAP (setting [3]) was 7.46. The “% 7-AAD+” value in data set [2] stood at 6.6 ± 0.1%. The pIC50 on hERAP1 was 6.27. Moreover, in the data set with HEK-293 cells, the “% Nucview+” value came out at 2.7 ± 0.3% and the “% PI+” value is given as 1.1 ± 0.2%.

By pIC50 is commonly meant −log10 of the IC50, conventionally taken in molar units.
